The source of these data is the NIST ThermoML archive (doi:10.1021/je034182z).

The conditions of series [1]: 298.15 K; 101.33 kPa; Liquid.
A short description of series [2]: refractive index (Na D-line) (dimensionless). To be noted: 298.15 K; 101.33 kPa; Liquid; Standard Abbe refractometry.

Numbers after ± are expanded uncertainties.

For orientation: mass density means mass per unit of volume. For orientation: refractive index means the speed of light in vacuum divided by its phase velocity in the sample.

For `Cc1cccc(C)c1` [1,3-dimethylbenzene], the mass density in series [1] came to 860.3 ± 0.5 kg/m3. For the same compound, the refractive index in series [2] was found to be 1.4947 ± 0.0007.

`CCCCCCC` [heptane]: the mass density in series [1] worked out at 679.4 ± 0.8 kg/m3. Besides, the refractive index in series [2] was found to be 1.3854 ± 0.0007.

Take `CCCCCC` [hexane]: in series [1], the mass density was 655.1 ± 0.7 kg/m3. Besides, in series [2], the refractive index is reported as 1.3747 ± 0.0007.

Take `CCCCCCCC` [octane]: in series [1], the mass density is listed as 698.5 ± 0.8 kg/m3. Further, the refractive index in series [2] worked out at 1.3954 ± 0.0007.

Take `C1CCOC1` [tetrahydrofuran]: the mass density in series [1] is 881.9 ± 1.3 kg/m3. Moreover, the refractive index in series [2] was found to be 1.4047 ± 0.0007.
